{"source": "patent US5872126A", "about": "“Methods and compositions for treating preterm labor” (priority 1997, dated 1999)", "system": "parturition in the rat", "experiment": "Parturition after termination of drug treatment on GD 17, 19 or 20 (Example 2)", "assay_type": "in vivo, Sprague-Dawley rat", "details": "20 mg/kg/day; for Mean Length of Gestation ± SD: in days (unit assumed)", "from_the_text": "In order to determine if termination of drug treatment with the 5α-reductase type 1 inhibitor 3-oxo-4-aza-4,7β-dimethyl-16β-(4-chlorophenoxy)-5α-androstane (\"test compound\") on GD 17, 19 or 20 would allow the 3-oxo-4-aza-4,7β-dimethyl-16β-(4-chlorophenoxy)-5α-androstane-treated pregnant females to initiate and complete parturition, Sprague-Dawley rats (Charles River Laboratories, Raleigh, N.C.) were approximately ten weeks of age and weighted 223 to 276 grams on Gestation Day 0 (GD 0, the day of finding copulatory plugs). The design of the study is as described below. All animals were housed and fed as described in Example 1, with the exception of a 1 hour transient electrical failure, during which power outage dim illumination was provided by emergency backup lighting.\nA dose of 20 mg/kg/day of the test compound was given once daily by oral gavage to the three treatment groups of 10 mated females each, designated by the treatment interval (GD 6-17, GD 6-19, and GD 6-20), at a dose volume of 5 mL/kg. (GD 6-17 received treatment from Gestational Day 6 through 17, etc.) An additional group of 10 females similarly received the vehicle (0.5% methylcellulose in deionized water with 0.02% sodium lauryl sulfate (SLS)) on GD 6-20 and served as the control."}
{"smiles": "C[C@H]1C[C@H]2N(C)C(=O)CC[C@]2(C)[C@H]2CC[C@]3(C)C[C@@H](Oc4ccc(Cl)cc4)C[C@H]3[C@H]12", "note": "[test compound, 3-oxo-4-aza-4,7β-dimethyl-16β-(4-chlorophenoxy)-5α-androstane]", "values": [{"measurement": "length of gestation relative to controls", "setting": "all dosing intervals", "value": "increases in the length of gestation"}, {"measurement": "number of pregnant females completing parturition", "setting": "dosed GD 6-17, delivery day GD 22.0", "value": 3}, {"measurement": "number of pregnant females completing parturition", "setting": "dosed GD 6-17, delivery day GD 22.5", "value": 1}, {"measurement": "number of pregnant females completing parturition", "setting": "dosed GD 6-17, delivery day GD 23.0", "value": 6}, {"measurement": "Mean Length of Gestation ± SD", "setting": "dosed GD 6-17", "value": "22.6 ± 0.5"}, {"measurement": "Sacrificed GD 24 due to failure to initiate or complete parturition", "setting": "dosed GD 6-19", "value": 1}, {"measurement": "pregnant females that failed to initiate or complete delivery (fraction)", "setting": "dosed GD 6-19", "value": "1/10"}, {"measurement": "number of pregnant females completing parturition", "setting": "dosed GD 6-19, delivery day GD 22.0", "value": 1}, {"measurement": "number of pregnant females completing parturition", "setting": "dosed GD 6-19, delivery day GD 22.5", "value": 3}, {"measurement": "number of pregnant females completing parturition", "setting": "dosed GD 6-19, delivery day GD 23.0", "value": 4}, {"measurement": "number of pregnant females completing parturition", "setting": "dosed GD 6-19, delivery day GD 23.5", "value": 1}, {"measurement": "Mean Length of Gestation ± SD", "setting": "dosed GD 6-19", "value": "22.8 ± 0.4"}, {"measurement": "Sacrificed GD 24 due to failure to initiate or complete parturition", "setting": "dosed GD 6-20", "value": 2}, {"measurement": "pregnant females that failed to initiate or complete delivery (fraction)", "setting": "dosed GD 6-20", "value": "2/9"}, {"measurement": "number of pregnant females completing parturition", "setting": "dosed GD 6-20, delivery day GD 23.0", "value": 5}, {"measurement": "number of pregnant females completing parturition", "setting": "dosed GD 6-20, delivery day GD 24", "value": 2}, {"measurement": "Mean Length of Gestation ± SD", "setting": "dosed GD 6-20", "value": "23.3 ± 0.5"}]}
